Paper PMC8026479 (Cancer Chemotherapy and Pharmacology, 2021)
Like-named read-outs stand apart in the source and are kept apart here.

Legend:
[1] = human, in vivo; cited from earlier work
[2] = Population PK model with allometric scaling of preclinical and human PK data; parameters: species or system mouse, rat, dog; settings: estimated
Description: Owing to the invasive nature of the PD marker collection (i.e. bone marrow aspiration), a semi-mechanistic PK/PD model based on animal PK/PD data and human PK data was developed to guide the selection of an optimal dose level for bone marrow aspiration in humans during dose escalation in the Phase I first-in-human study. The model was constructed using PK data from four species (mouse, rat, dog, and human) and PD data from three species (mouse, rat, and dog; Online Resources 1 and 2).
The model was constructed in two stages. First, preclinical PK data (e.g. doses, routes, and schedule of administration, observed concentrations) were compiled and modeled by allometric scaling. A sequential PK/PD modeling approach (population PK parameters and data approach) was then employed in which a semi-mechanistic PD model with various physiological compartments was created, and specific assumptions entered (Online Resource 3). Traditional forward addition/backward elimination was used for PK modeling. […] Many parameters in this complex model could not be estimated and were fixed either to the literature values or values selected on the basis of discussions with domain experts and sensitivity analysis. In preclinical animal models, the PD analysis modeled bone marrow cells positive for 5′-ethynyl-2′-deoxyuridine (EdU) and peripheral neutrophil counts simultaneously. Although the preclinical animal models could determine the G1 phase, they could not differentiate S, G2, and M phases; cells in these phases will be referred to as “cycling” throughout this manuscript.
Online Resource 1 List of studies used in PK and PD models
Data set Species Administration route Endpoint
BM bone marrow, EdU 5’-ethynyl-2’-deoxyuridine, IP intraperitoneal, IV intravenous, PD pharmacodynamics , PK
pharmacokinetics , PMN polymorphonuclear cell
Online Resource 2 Brief description of animal studies used in PK and PD models
Preclinical pharmacokinetic (PK)/toxicokinetic studies were conducted in mice, rats, and dogs. Data from eight
studies in four species, with a total of 1628 observations from 191 individuals, were used for PK/pharmacodynamic
(PD) modeling. Administration routes included oral, intravenous (IV), and intraperitoneal (IP). The designs of these
studies are described briefly below:
samples were collected from pre dose up to 48 h post dose. In rat toxicology studies, rats received 7-day
PK samples were collected
from pre dose up to 24 h post dose on Day 1 and Day 7.
samples were collected from pre dose up to 30 h post dose.
IV infusion. […]
Online Resource 3 PK/PD model parameters and assumptions
PK model parameters for trilacicliba
Ka (/h) 20.0 (FIXED) Assumptionb
Bioavailability (oral, mouse) 0.62 Estimated
Intercompartment rate constant 15.94 Estimated
Intercompartment clearance K42 0.29 Estimated
Allometric exponent for V 1.00 Estimated
Allometric exponent for CL 1.00 (FIXED) Assumptionc
Additive error 2.00 (FIXED) Assumptiond
Proportional error 0.32 Estimated
PD model parameters for trilaciclib and
Rate constant for BM precursor G 0.04 (FIXED) Assumption e
Rate constant for neutrophils 3.24*E-2 (FIXED) Assumption f
Max effect of G1T28 in the E max 1.00 (FIXED) Assumption g
Concentration of G1T28 with 5.90 Estimated
Feedback slope (/h) 1.00*E-6 (FIXED) Assumptionh
Scale for neutrophils in mice 150 Estimated
Scale for neutrophils in dogs 848 Estimated
EC50 as fraction of baseline value 2.00 Estimated
of persistence effect . Effect is on
transition of S phase cells to G1
Rate constant for stem cell G to 0.51 Estimated
Residual error variance 0.73 Estimated
aPK model parameters for 5 -FU were obtained from the literature
K a could not be estimated and
cThe allometric exponent for CL was estimated to be 0.945 from an earlier model during the model development
process and was fixed to 1 .00 for the purpose of model simplification to avoid overparameterization
dThe additive error was fixed to 20% of the assay LLOQ (10 ng/mL) to decrease the number of parameters to fit […]

[3] = test system: total bone marrow cycling cells; parameters: method as in doi:10.1200/jco.2015.33.15_suppl.2529; settings: dogs; cited from earlier work
[4] = Study G1T28-1-01 plasma PK, first-in-human single dose; format: in vivo; settings: for Vd: read-out: Vz
[5] = both sexes, human, plasma, iv, 6 mg/m2, healthy volunteers, single 30-min IV 6 mg/m2 (n = 3), mean
[6] = both sexes, human, plasma, iv, 12 mg/m2, healthy volunteers, single 30-min IV 12 mg/m2 (n = 3), mean
[7] = both sexes, human, plasma, iv, 24 mg/m2, healthy volunteers, single 30-min IV 24 mg/m2 (n = 3), mean
[8] = both sexes, human, plasma, iv, 49 mg/m2, healthy volunteers, single 30-min IV 49 mg/m2 (n = 3), mean
[9] = both sexes, human, plasma, iv, 96 mg/m2, healthy volunteers, single 30-min IV 96 mg/m2 (n = 6), mean
[10] = both sexes, human, plasma, healthy volunteers, single 30-min IV 6 mg/m2 (n = 3), mean
[11] = both sexes, human, plasma, healthy volunteers, single 30-min IV 96 mg/m2 (n = 6), mean
[12] = both, human, plasma, intravenous, […]2, healthy volunteers, BED cohort […]2 (n = 12), mean
[13] = both, human, plasma, intravenous, […]2, healthy volunteers, both […]2 cohorts (n = 18), mean
[14] = both, human, plasma, iv, […]2, healthy volunteers, single 30-min IV […]2 SAD cohort (n = 6), mean
[15] = healthy volunteers, single 30-min IV 6 mg/m2 (n = 3), mean
[16] = healthy volunteers, single 30-min IV 96 mg/m2 (n = 6), mean

bioavailability ([2]; 150 mg/kg, oral, mouse): 62%
Intercompartment clearance K24 [2]: 2.03 h⁻¹
Intercompartment clearance K32 [2]: 4.42 h⁻¹
Intercompartment clearance K42 [2]: 0.29 h⁻¹
Intercompartment rate constant K23 [2]: 15.94 h⁻¹
clearance ([2]; mouse, rat, dog, human, three-compartment model, allometric scaling, read-out: CL, PK model (converted)): 46.2 mL/min/kg
Vd ([2]; mouse, rat, dog, human, three-compartment model, allometric scaling, read-out: V (central volume of distribution), PK model): 1.32 L/kg
clearance [4, 5]: 3130 mL/min
Vd [4, 5]: 1460 L
clearance [4, 6]: 2700 mL/min
Vd [4, 6]: 1770 L
clearance [4, 7]: 2930 mL/min
Vd [4, 7]: 2310 L
clearance [4, 8]: 2930 mL/min
Vd [4, 8]: 3430 L
clearance [4, 9]: 2370 mL/min
Vd [4, 9]: 3050 L
Tmax [4, 10]: 0.25 h
half-life [4, 10]: 5.32 h
half-life ([4]; both sexes, human, plasma, healthy volunteers, single 30-min IV 12 mg/m2 (n = 3), mean): 7.62 h
AUC(0-inf) ([4]; both sexes, human, plasma, healthy volunteers, single 30-min IV 12 mg/m2 (n = 3), mean, read-out: AUC0-inf): 143 ng·h/mL
half-life ([4]; both sexes, human, plasma, healthy volunteers, single 30-min IV 24 mg/m2 (n = 3), mean): 9.28 h
AUC(0-inf) ([4]; both sexes, human, plasma, healthy volunteers, single 30-min IV 24 mg/m2 (n = 3), mean, read-out: AUC0-inf): 279 ng·h/mL
Cmax ([4]; both sexes, human, plasma, healthy volunteers, single 30-min IV 24 mg/m2 (n = 3), mean, read-out: Cmax): 255 ng/mL
half-life ([4]; both sexes, human, plasma, healthy volunteers, single 30-min IV 49 mg/m2 (n = 3), mean): 12.9 h
Tmax [4, 11]: 0.37 h
half-life [4, 11]: 14.7 h
Tmax ([4]; both, human, plasma, intravenous, […]2): 0.47 h
clearance [4, 12]: 2100 mL/min
Vd [4, 12]: 2640 L
clearance [4, 13]: 2050 mL/min
Vd [4, 13]: 2580 L
half-life ([4]; both, human, plasma, iv, […]2): 14.5 h
clearance [4, 14]: 1950 mL/min
Vd [4, 14]: 2460 L
AUC(0-inf) [4, 15]: 66.6 ng·h/mL
Cmax [4, 15]: 50.4 ng/mL
Cmax ([4]; healthy volunteers, single 30-min IV 12 mg/m2 (n = 3), mean): 119 ng/mL
AUC(0-inf) ([4]; healthy volunteers, single 30-min IV 49 mg/m2 (n = 3), mean): 518 ng·h/mL
AUC(0-inf) [4, 16]: 1341 ng·h/mL
Cmax [4, 16]: 910 ng/mL
SMILES: CN1CCN(c2ccc(Nc3ncc4cc5n(c4n3)C3(CCCCC3)CNC5=O)nc2)CC1 [trilaciclib]
most commonly reported AEs [1]: headache and nausea
severe AEs [1]: No severe AEs were reported
time to spontaneous resolution of all moderate AEs [1]: ≤ 24 h
maximum decrease from baseline in total bone marrow cycling cells [3]: ~ 50%
